The subject of this assay is PKA. The assay is described as follows: Radioactive PKA kinase reaction with phosphocellulose or streptavidin capture. Format: biochemical. Particulars: substrate peptide. The procedure:
The peptide substrates were added in 90 μl assay buffer containing 20 mM Tris-HCl pH 7.5, 2.5 mM MgCl2, and 100 μM ATP for non-radioactive detection, or 10 μM cold ATP supplemented with 0.5 μCi/well [γ-^32 P]ATP for radioactive detection, unless indicated otherwise. Freshly reconstituted PKA (1.25 ng/well in 10 μl, unless indicated otherwise) was added last and the samples were incubated for 30 minutes at room temperature. Depending on the detection method the samples were further processed as described below.
After performing a PKA kinase reaction for 30 minutes, the samples were divided into two. 50 μl were transferred into wells of streptavidin coated microtiter plates, to allow the capture of the biotinylated peptides for additional 50 minutes. The wells were washed five times with water, dried, broken into scintillation vials and counted. The other half of the reaction mixture was further incubated in the original plate for 50 minutes, then TCA was added to the reaction mixture (10% final concentration) and 30 μl was spotted onto P81 paper (1×1 inch squares). After 20 minutes the squares were washed three times with water, dried, placed into scintillation vials and counted. A microtiter plate version of the phosphocellulose capture method was also used with similar results. For src only the phosphocellulose capture method was used.

The record followed here is patent US5759787A, “Kinase assay” (Tularik Inc., priority 1996, dated 1998).

Where no end group is shown, it is not given here.

As usually defined, the Km is the substrate concentration at which the rate is half of its maximum.

Regarding “bio-RRRVTSAARRS (not fully specified (N-terminus); printed as bio-RRRVTSAARRS) [peptide 2]”, the Km is above 20 µM.
